According to PubChem BioAssay AID248 (DTP/NCI, 2004):
Where “and” joins values, the source holds several entries; their conditions need not be identical. Equal values may be shown once. Toxic doses and inconclusive results are not listed.

System: L1210 leukemia ip in BDF1 mice, survival T/C
Experiment: NCI In Vivo Anticancer Drug Screen. Data for tumor model L1210 Leukemia (intraperitoneal) in B6D2F1 (BDF1) mice
Conditions: endpoint: mean survival time, higher = longer survival
Outline: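 In this screen, tumor-bearing mice given compound are compared to those given vehicle, and their survival values are reported as a treated-to-control quotient.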

[1] = dose: 100.0 mg/kg/injection, schedule: Q04DX003 (ip), vehicle: saline
[2] = dose: 200.0 mg/kg/injection, schedule: Q04DX003 (ip), vehicle: saline
[3] = dose: 400.0 mg/kg/injection, schedule: Q04DX003 (ip), vehicle: saline
[4] = dose: 5.0 mg/kg/injection, schedule: Q01DX001 (ip), vehicle: saline
[5] = dose: 100.0 mg/kg/injection, schedule: Q04DX003 (ip), vehicle: saline with Tween-80
[6] = dose: 200.0 mg/kg/injection, schedule: Q04DX003 (ip), vehicle: saline with Tween-80
[7] = dose: 100.0 mg/kg/injection, schedule: Q01DX009 (ip), vehicle: saline
[8] = dose: 200.0 mg/kg/injection, schedule: Q01DX009 (ip), vehicle: saline
[9] = dose: 400.0 mg/kg/injection, schedule: Q04DX003 (ip), vehicle: saline with Tween-80
[10] = dose: 100.0 mg/kg/injection, schedule: Q04DX003 (ip), vehicle: Klucel (hydroxypropylcellulose) (HPC)
[11] = dose: 200.0 mg/kg/injection, schedule: Q04DX003 (ip), vehicle: Klucel (hydroxypropylcellulose) (HPC)
[12] = dose: 400.0 mg/kg/injection, schedule: Q04DX003 (ip), vehicle: Klucel (hydroxypropylcellulose) (HPC)
[13] = dose: 100.0 mg/kg/injection, schedule: Q01DX001 (ip), vehicle: carboxymethylcellulose (CMC)
[14] = dose: 200.0 mg/kg/injection, schedule: Q01DX001 (ip), vehicle: carboxymethylcellulose (CMC)
[15] = dose: 400.0 mg/kg/injection, schedule: Q01DX001 (ip), vehicle: carboxymethylcellulose (CMC)
[16] = dose: 100.0 mg/kg/injection, schedule: Q04DX002 (ip), vehicle: Klucel (hydroxypropylcellulose) (HPC)
[17] = dose: 200.0 mg/kg/injection, schedule: Q04DX002 (ip), vehicle: Klucel (hydroxypropylcellulose) (HPC)
[18] = dose: 400.0 mg/kg/injection, schedule: Q04DX002 (ip), vehicle: Klucel (hydroxypropylcellulose) (HPC)
[19] = dose: 20.0 mg/kg/injection, schedule: Q01DX001 (ip), vehicle: saline
[20] = dose: 40.0 mg/kg/injection, schedule: Q01DX001 (ip), vehicle: saline

## S=C(c1ccccc1)N(c1ccccc1)C1CCCCC1
dose: 100.0 mg/kg/injection, schedule: Q04DX003 (ip), vehicle: gum acacia
  T/C: 91 % of control
dose: 200.0 mg/kg/injection, schedule: Q04DX003 (ip), vehicle: gum acacia
  T/C: 88 % of control
dose: 400.0 mg/kg/injection, schedule: Q04DX003 (ip), vehicle: gum acacia
  T/C: 88 % of control

## CCCC[P+](CCCC)(CCCC)Cc1ccc([N+](=O)[O-])cc1
dose: 12.5 mg/kg/injection, schedule: Q01DX001 (ip), vehicle: Klucel (hydroxypropylcellulose) (HPC)
  T/C: 97 % of control
dose: 12.5 mg/kg/injection, schedule: Q04DX002 (ip), vehicle: Klucel (hydroxypropylcellulose) (HPC)
  T/C: 106 % of control
dose: 25.0 mg/kg/injection, schedule: Q01DX001 (ip), vehicle: Klucel (hydroxypropylcellulose) (HPC)
  T/C: 101 % of control
dose: 25.0 mg/kg/injection, schedule: Q01DX009 (ip), vehicle: Klucel (hydroxypropylcellulose) (HPC)
  T/C: 99 % of control
dose: 25.0 mg/kg/injection, schedule: Q04DX002 (ip), vehicle: Klucel (hydroxypropylcellulose) (HPC)
  T/C: 106 % of control
dose: 50.0 mg/kg/injection, schedule: Q01DX001 (ip), vehicle: Klucel (hydroxypropylcellulose) (HPC)
  T/C: 101 % of control
dose: 50.0 mg/kg/injection, schedule: Q04DX002 (ip), vehicle: Klucel (hydroxypropylcellulose) (HPC)
  T/C: 87 % of control

## COc1ccc(CCNC(c2ccccc2)c2ccccc2)cc1OC
[1]
  T/C: 105 % of control
[2]
  T/C: 108 % of control
[3]
  T/C: 105 % of control

## C=CCOC(=O)OCc1ccccc1
dose: 222.0 mg/kg/injection, schedule: Q01DX Z (ip), vehicle: methylcellulose (MC)
  T/C: 92 % of control
dose: 333.0 mg/kg/injection, schedule: Q01DX Z (ip), vehicle: methylcellulose (MC)
  T/C: 89 % of control

## C[N+](C)(C)CC1COCCO1 (stereo not given)
[4]
  T/C: 105 % of control

## CC(=O)NCc1cc2c3c(c1)CCCN3CCC2
dose: 50.0 mg/kg/injection, schedule: Q01DX009 (ip), vehicle: saline with Tween-80
  T/C: 97 % of control
dose: 100.0 mg/kg/injection, schedule: Q01DX009 (ip), vehicle: saline with Tween-80
  T/C: 90 % of control
[5]
  T/C: 90 % of control
dose: 200.0 mg/kg/injection, schedule: Q01DX009 (ip), vehicle: saline with Tween-80
  T/C: 94 % of control
[6]
  T/C: 100 % of control

## Fc1c(F)c(F)c(-c2ccccc2)c(F)c1F
dose: 25.6 mg/kg/injection, schedule: Q04DX002 (ip), vehicle: saline with Tween-80
  T/C: 92 % of control
dose: 64.0 mg/kg/injection, schedule: Q04DX002 (ip), vehicle: saline with Tween-80
  T/C: 95 % of control
dose: 160.0 mg/kg/injection, schedule: Q04DX002 (ip), vehicle: saline with Tween-80
  T/C: 95 % of control
dose: 400.0 mg/kg/injection, schedule: Q04DX002 (ip), vehicle: saline with Tween-80
  T/C: 95 % of control

## COc1cc(Cl)c(CC(=O)c2c[nH]c3ccccc23)cc1OC
dose: 50.0 mg/kg/injection, schedule: Q01DX001 (ip), vehicle: saline
  T/C: 96 % of control
dose: 100.0 mg/kg/injection, schedule: Q01DX001 (ip), vehicle: saline
  T/C: 93 % of control
[7]
  T/C: 95 % of control
dose: 200.0 mg/kg/injection, schedule: Q01DX001 (ip), vehicle: saline
  T/C: 96 % of control
[8]
  T/C: 98 % of control
dose: 400.0 mg/kg/injection, schedule: Q01DX001 (ip), vehicle: saline
  T/C: 96 % of control
dose: 400.0 mg/kg/injection, schedule: Q01DX009 (ip), vehicle: saline
  T/C: 101 % of control

## C1=Nc2c(ccc3ccccc23)CS1
dose: 100.0 mg/kg/injection, schedule: Q04DX002 (ip), vehicle: other
  T/C: 93 % of control

## O=S(=O)(O)c1cc(O)c2c(N=Nc3c(S(=O)(=O)O)cc4cc(S(=O)(=O)O)cc(N=Nc5c(S(=O)(=O)O)cc6cc(S(=O)(=O)O)cc(O)c6c5O)c4c3O)cc(S(=O)(=O)O)cc2c1
[5]
  T/C: 94 % of control
[6]
  T/C: 96 % of control
[9]
  T/C: 96 % of control

## CC(=O)CC(=O)N1CCCCC1C (stereo not given)
[10]
  T/C: 104 % of control
[11]
  T/C: 101 % of control
[12]
  T/C: 97 % of control

## Cc1ccc(S(=O)(=O)OCCCCl)cc1
[13]
  T/C: 112 % of control
[14]
  T/C: 106 % of control
[15]
  T/C: 101 % of control

## CC1(C)CN1P(=S)(N1CC1(C)C)N1CC1(C)C (stereo not given)
dose: 12.5 mg/kg/injection, schedule: Q01DX009 (ip), vehicle: saline
  T/C: 98 % of control
dose: 14.0 mg/kg/injection, schedule: Q01DX009 (ip), vehicle: saline
  T/C: 109 % of control
dose: 22.0 mg/kg/injection, schedule: Q01DX009 (ip), vehicle: saline
  T/C: 112 % of control
dose: 25.0 mg/kg/injection, schedule: Q01DX009 (ip), vehicle: saline
  T/C: 94 % of control
dose: 33.0 mg/kg/injection, schedule: Q01DX009 (ip), vehicle: saline
  T/C: 152 % of control
dose: 44.0 mg/kg/injection, schedule: Q01DX001 (ip), vehicle: other
  T/C: 121 % of control
[13]
  T/C: 166 % of control and 169 % of control
dose: 100.0 mg/kg/injection, schedule: Q01DX001 (ip), vehicle: other
  T/C: 153 % of control
dose: 150.0 mg/kg/injection, schedule: Q01DX001 (ip), vehicle: other
  T/C: 158 % of control
[14]
  T/C: 164 % of control
[8]
  T/C: 120 % of control

## O=C(NCc1ccc(Cl)c(Cl)c1)Nc1ccccc1F
dose: 100.0 mg/kg/injection, schedule: Q01DX009 (ip), vehicle: Klucel (hydroxypropylcellulose) (HPC)
  T/C: 101 % of control
[16]
  T/C: 102 % of control
dose: 200.0 mg/kg/injection, schedule: Q01DX009 (ip), vehicle: Klucel (hydroxypropylcellulose) (HPC)
  T/C: 104 % of control
[17]
  T/C: 105 % of control
dose: 400.0 mg/kg/injection, schedule: Q01DX009 (ip), vehicle: Klucel (hydroxypropylcellulose) (HPC)
  T/C: 101 % of control
[18]
  T/C: 97 % of control

## CC(C)(C)CNC(C)(C)C
[4]
  T/C: 109 % of control
dose: 10.0 mg/kg/injection, schedule: Q01DX001 (ip), vehicle: saline
  T/C: 103 % of control
[19]
  T/C: 100 % of control
[20]
  T/C: 103 % of control
dose: 50.0 mg/kg/injection, schedule: Q04DX002 (ip), vehicle: saline
  T/C: 112 % of control
dose: 80.0 mg/kg/injection, schedule: Q01DX001 (ip), vehicle: saline
  T/C: 105 % of control
dose: 100.0 mg/kg/injection, schedule: Q04DX002 (ip), vehicle: saline
  T/C: 104 % of control
dose: 200.0 mg/kg/injection, schedule: Q04DX002 (ip), vehicle: saline
  T/C: 95 % of control

## COc1ccc(C(=O)NS(=O)(=O)c2ccc(Cl)cc2)cc1
[5]
  T/C: 107 % of control
[6]
  T/C: 91 % of control
[9]
  T/C: 114 % of control

## c1ccc(C2OCCCOC2c2ccccc2)cc1 (stereo not given)
[13]
  T/C: 97 % of control
[14]
  T/C: 97 % of control
[15]
  T/C: 103 % of control

## CN(C)c1ccc(/C=N\NC(=O)CCCCC(=O)N/N=C\c2ccc(N(C)C)cc2)cc1
[10]
  T/C: 94 % of control
[11]
  T/C: 91 % of control
[12]
  T/C: 91 % of control

## CS(=O)(=O)Nc1ccc(Nc2c3ccccc3nc3cc(N)ccc23)cc1
dose: 0.4 mg/kg/injection, schedule: Q01DX009 (ip), vehicle: saline
  T/C: 152 % of control
dose: 1.25 mg/kg/injection, schedule: Q01DX009 (ip), vehicle: saline
  T/C: 100 % of control
dose: 4.0 mg/kg/injection, schedule: Q01DX009 (sc), vehicle: saline
  T/C: 123 % of control
dose: 5.0 mg/kg/injection, schedule: Q01DX009 (ip), vehicle: saline
  T/C: 88 % of control
[19]
  T/C: 92 % of control
[20]
  T/C: 89 % of control

## CN(C)C(C)(C)CO
[7]
  T/C: 98 % of control
[1]
  T/C: 96 % of control
[8]
  T/C: 98 % of control
[2]
  T/C: 98 % of control
[3]
  T/C: 101 % of control

## O=C(O)C1CC(Br)C(Br)CC1C(=O)Nc1cccc2ccccc12 (stereo not given)
[16]
  T/C: 100 % of control
[17]
  T/C: 92 % of control
[18]
  T/C: 95 % of control
